Assay results published in patent US10722578B2, “Methods and compositions for treating neuroblastoma” (The Children's Hospital of Philadelphia, priority 2008, dated 2020).
Values joined by “and” are separate entries in the source; they are usually repeats but may differ in a detail not shown here. Equal values may be shown once. “Also recorded” adds a separate entry of the source. Read-outs that look alike come from different tables or passages of the source.

What was measured:
NBSD (F1174L) xenografts = conditions: 100 mg/kg/day oral gavage, 4 weeks
SY5Y cells [1] = assay: Antibody-dependent cell-mediated cytotoxicity assay, SY5Y targets; format: cell-based, human; conditions: SY5Y pre-incubated 48 hours with crizotinib, then ALK antibody, mean
Method: The Cyto Tox 96 Non-Radioactive Cytotoxicity Assay (Promega) was used to assess antibody-dependent cell mediated cytotoxicity. […] Non-adherent peripheral blood lymphocytes were then replated in complete RPMI containing 1000 IU/ml rhIL-2 (Chiron) and incubated overnight. The following day, effector cells were collected and washed. Target NB1 or SY5Y cells that had been grown on T75 flasks until 70-80% confluency were also harvested and washed. […] Control wells were plated according to the manufacturer's specifications. After a 4-hour incubation at 37° C., cell viability was assessed by an enzymatic assay allowing for the quantification of lactate dehydrogenase which is released upon cell lysis. The % cytotoxicity was calculated as follows: [(Experimental−Effector Spontaneous−Target Spontaneous)/(Target Maximum−Target Spontaneous)]×100. […] Results shown are representative of three independent experiments, and quoted as mean±standard deviation.

NBEBc1 (WT) xenografts = conditions: 100 mg/kg/day oral gavage, 4 weeks
neuroblastoma cell lines = assay: In vitro growth inhibition (RT-CES), panel of neuroblastoma cell lines; format: cell-based, human; conditions: 333 nM, 72 hours; for Inhibition of growth, cell lines with ALK amplification or mutations: compared with normal copy number wild type ALK lines
Description: A quantitative assay to evaluate growth inhibition in a multi-well was used in a parallel format to screen for cellular cytotoxicity. […] For FIG. 7, the biochemical consequences of ALK activation and downstream signaling pathways were studied in ALK-mutant lines.
(§1) To verify cell line integrity, all lines were routinely genotyped (AmpFLSTR® Identifiler® kit; Applied Biosystems) and mycoplasma tested.
It has been shown that mRNA knockdown of ALK in neuroblastoma cell lines with mutation or amplification is cytotoxic, and thus ALK inhibition might offer a tractable therapeutic target.

SKNAS (WT) xenografts = conditions: 100 mg/kg/day oral gavage, 4 weeks
[2] = test system: SHSY5Y (F1174L) xenografts; conditions: 100 mg/kg/day oral gavage, 4 weeks; end point tumor volume ≥1.5 cm^3 or treatment related death
pSTAT3, pAKT, and pERK = assay: In vitro phosphoprotein detection (immunoblot), downstream signaling; conditions: NB1 (wild type amplified)
NB1 (WT amplification) = conditions: NB1, dose-dependent
Description: as §1

SH-SY5Y (F1174L) = conditions: did not occur until this dose
Description: as §1

NB1643 (R1275Q) = conditions: NB1643, dose-dependent
Description: as §1

SY5Y cells [3] = assay: Propidium iodide staining, cell cycle analysis, SY5Y; format: cell-based, human; conditions: 1000 nM crizotinib, 10 μg/ml antibody, or both, mean

C[C@@H](Oc1cc(-c2cnn(C3CCNCC3)c2)cnc1N)c1c(Cl)ccc(F)c1Cl [PF-02341066, crizotinib]
Prolongation of survival (NBSD (F1174L) xenografts): 3.7 days | ADCC % cytotoxicity (SY5Y cells [1]; effector:target 25:1): 33.7±2.5% | ADCC % cytotoxicity (SY5Y cells [1]; effector:target 50:1): 55.7±9.3% | Prolongation of survival (NBEBc1 (WT) xenografts): 5.1 days | Inhibition of growth, cell lines with normal copy number WT ALK (neuroblastoma cell lines): No cell lines with normal copy number WT ALK showed significant inhibition | Sensitivity of R1275Q cell lines compared with F1174L cell lines (neuroblastoma cell lines): more sensitive | Inhibition of growth, cell lines with ALK amplification or mutations (neuroblastoma cell lines): significantly superior inhibition of growth | Inhibition of growth, cell lines with ALK amplification or mutations (neuroblastoma cell lines; listed as PF2341066): sensitive; also recorded: significantly more sensitive | Sensitivity of R1275Q cell lines compared with F1174L cell lines (neuroblastoma cell lines; listed as PF2341066): R1275Q mutations were more sensitive than F1174L mutations; also recorded: significantly more sensitive | Prolongation of survival / days to reach tumor volume of 1.5 cm^3 (SKNAS (WT) xenografts): non-significant difference in days to reach a tumor volume of 1.5 cm^3 | Prolongation of survival / days to reach tumor volume of 1.5 cm^3 (SKNAS (WT) xenografts; listed as PF-2341066): neither a delay in tumor growth (P=0.87) or prolongation of survival | Prolongation of survival [2]: 7.7 days | Abrogation of phosphorylation of STAT3, AKT and ERK (pSTAT3, pAKT, and pERK): substantial abrogation | Dose at which inhibition of proliferation occurred (NB1 (WT amplification)): 33 to 100 nM | Dose at which inhibition of proliferation occurred (SH-SY5Y (F1174L)): 1000 nM | Dose at which inhibition of proliferation occurred (NB1643 (R1275Q)): 33 to 100 nM and 33 nM | sub G0 fraction (SY5Y cells [3]): increased the sub G0 fraction, but to a smaller extent than seen with dual treatment
